Common to all, as to assay: Post-emergence action against weeds, greenhouse pot test, visual scoring
Type in all cases: in vivo

In assay [1] the test system is Cyperus esculentus (CYPES). Particulars: Cyperus esculentus, post-emergence, 504 h, CYPES, 21 DAT, read-out: % activity found. The method, then:
(§1) Seeds or rhizome pieces of mono- and dicotyledonous harmful and useful plants were placed in peat pots (diameter 4 cm) filled with sandy loam and then covered with soil. The pots were kept in a greenhouse under optimum conditions. In addition, harmful plants encountered in paddy rice cultivation were cultivated in pots with a water level 2 cm above the soil surface.
(§2) About three weeks after the start of the cultivation, the test plants were treated at the 2- to 3-leaf stage. The herbicides, formulated as powder or liquid concentrates, were, either alone or in the combinations according to the invention, sprayed in various dosages on to the green parts of the plants using an application rate of 600 l of water/ha (converted). For further cultivation of the plants, the pots were then again kept under optimum conditions in a greenhouse.
(§3) The visual scoring of the herbicidal effects was carried out in intervals up to 21 days after the treatment. Scoring was carried out in percent in comparison to the untreated control plants. 0%=no herbicidal activity, 100%=complete herbicidal activity=complete kill.
(§4) The percentages from the treatments with the herbicides alone (=individual application) and with the combinations according to the invention (=mixtures) were employed to calculate interactions using the method of Colby.
(§5) • A, B=activity of components A and B in percent at a dosage of a and b g of ai/ha (=gramm of active substance per hectare), respectively. • E=expected value in % at a dosage of a+b g of ai/ha.

The next assay deals with Zea mays (ZEAMX). On the procedure: as §1, §2, §3, §4, §5
Assay [2] concerns Lolium multiflorum (LOLMU). Particulars: for inhibition at 60 g/ha: 60 g of ai/ha alone. On the procedure: as §1, §2, §3, §4, §5
For the next assay, the system named is Avena fatua (AVEFA). The method, then: as §1, §2, §3, §4, §5
Another assay has as its system Viola tricolor (VIOTR). Particulars: for (7) activity found: rate (6) B7-4 40. On the procedure:
as §1, §2, §3, §4, §5

For a further assay, the system named is Oryza sativa (ORYSA). Particulars: read-out: % activity found; for inhibition at 7 g/ha: 7 g of ai/ha alone. The method, then:
as §1, §2, §3
(§6) The percentages from the treatments with the herbicides alone (=individual application) and with the combinations according to the invention (=mixtures) were employed to calculate interactions using the method of Colby. When the observed efficacies of the mixtures exceed the formal sum of the values of the tests with individual applications, they also exceed the expected value according to Colby, which is calculated using the formula below (cf. S. R. Colby; in Weeds 15 (1967) pp. 20 to 22):
as §5

Assay [3] concerns Matricaria inodora (MATIN). The note with it: for (7) activity found: MATIN, 21 DAT. On the procedure:
as §1, §2, §3, §4, §5

Assay [4] relates to Fallopia (ex Polygonum) convolvulus (POLCO). The method, then: as §1, §2, §3, §4, §5
For a further assay, the system named is Setaria viridis (SETVI). Particulars: 504 h, read-out: % activity found. The method, then: as §1, §2, §3, §6, §5
In assay [5] the test system is Alopecurus myosuroides (ALOMY). Particulars: read-out: % activity found; for inhibition at 20 g/ha / inhibition at 60 g/ha: ALOMY; for inhibition at 20 g/ha: 20 g of ai/ha alone; for inhibition at 60 g/ha: 60 g of ai/ha alone. On the procedure: as §1, §2, §3, §6, §5
Assay [6] has as its system Triticum aestivum (TRZAS). The note with it: for inhibition at 20 g/ha / inhibition at 60 g/ha: Triticum aestivum, post-emergence, read-out: % activity found; for inhibition at 20 g/ha: 20 g of ai/ha alone; for inhibition at 60 g/ha: 60 g of ai/ha alone. The method, then: as §1, §2, §3, §4, §5
For assay [7], the system named is Abuthilon theophrasti (ABUTH). Particulars: 21 DAT, rate (6) B7-4 120. On the procedure:
as §1, §2, §3, §4, §5

A further assay concerns Stellaria media (STEME). Particulars: 10 DAT. The method, then:
as §1, §2, §3, §4, §5

Assay [8] concerns Pharbitis purpurea (PHBPU). The note with it: 21 DAT. On the procedure:
as §1, §2, §3, §4, §5

The test system of the next assay is Veronica persica (VERPE). Particulars: 21 DAT. The method, then:
as §1, §2, §3, §4, §5

Where [9] appears, read: Tripleurospermum inodorum, post-emergence, 504 h, read-out: % activity found.
The mark [10] stands for this setting: Lolium multiflorum, post-emergence, 240 h, read-out: % activity found.
Where [11] appears, read: Fallopia convolvulus, post-emergence, 504 h, read-out: % activity found.

Where two headings read alike, the source gives them in different places.

This note sets out measurements from patent publication US20100075852A1, “HERBICIDE COMBINATION COMPRISING DIMETHOXYTRIAZINYL-SUBSTITUTED DIFLUOROMETHANESULFONYLANILIDES” (BAYER CROPSCIENCE AG, priority 2008, published 2010).

In the case of `COCc1cnc(C2=NC(C)(C(C)C)C(=O)N2)c(C(=O)O)c1` (racemic) [B4-2, (±)-2-[4,5-dihydro-4-methyl-4-(1-methylethyl)-5-oxo-1H-imidazol-2-yl]-5-(methoxymethyl)-3-pyridinecarboxylic acid], the inhibition at 7 g/ha amounted to 0% in [1] (7 g of ai/ha alone); 10% with Zea mays (ZEAMX) (Zea mays, post-emergence, 504 h, ZEAMX, 21 DAT, 7 g of ai/ha alone, read-out: % activity found); 80% in assay [2] (Lolium multiflorum, post-emergence, 504 h, LOLMU, 21 DAT, 7 g of ai/ha alone, read-out: % activity found); 20% in the assay with Viola tricolor (VIOTR) (Viola tricolor, post-emergence, 504 h, 21 DAT, 7 g of ai/ha alone, read-out: % activity found); 70% in the assay on Oryza sativa (ORYSA) (240 h, ORYSA, 10 DAT); 70% with Oryza sativa (ORYSA) (504 h, ORYSA, 21 DAT). Besides, the inhibition at 21 g/ha in the assay on Zea mays (ZEAMX) (Zea mays, post-emergence, 504 h, ZEAMX, 21 DAT, 21 g of ai/ha alone, read-out: % activity found) was determined as 60%; in the assay with Avena fatua (AVEFA) (Avena fatua, post-emergence, 504 h, AVEFA, 21 DAT, 21 g of ai/ha alone, read-out: % activity found), 70%; in the assay with Viola tricolor (VIOTR) (Viola tricolor, post-emergence, 504 h, 21 DAT, 21 g of ai/ha alone, read-out: % activity found), 40%.

As for `Cc1nn(C)c(O)c1C(=O)c1ccc(C(F)(F)F)cc1S(C)(=O)=O` [B1-6, (5-hydroxy-1,3-dimethyl-1H-pyrazol-4-yl)[2-(methylsulfonyl)-4-(trifluoromethyl)phenyl]methanone], the inhibition at 24 g/ha stood at 0% with Zea mays (ZEAMX) (Zea mays, post-emergence, 240 h, read-out: % activity found); 0% with Zea mays (ZEAMX) (Zea mays, post-emergence, 504 h, read-out: % activity found); 30% in [3] (setting [9]); 0% in assay [2] (setting [10]); 60% in assay [4] (setting [11]); 0% in the assay with Setaria viridis (SETVI). Further, the inhibition at 24 g/ha is 0% in [5] (240 h), 0% in assay [5] (504 h) and 70% with Oryza sativa (ORYSA) (504 h). In addition, the inhibition at 8 g/ha in assay [3] (setting [9]) worked out at 20%; in [2] (setting [10]), 0%; in assay [2] (Lolium multiflorum, post-emergence, 504 h, read-out: % activity found) it was 0%; in the assay with Avena fatua (AVEFA) (Avena fatua, post-emergence, 240 h, read-out: % activity found) it was 0%; with Avena fatua (AVEFA) (Avena fatua, post-emergence, 504 h, read-out: % activity found), 0%; in assay [4] (setting [11]) it was 50%. Further, the inhibition at 8 g/ha was found to be 0% with Setaria viridis (SETVI); 0% in assay [5] (240 h); 0% in assay [5] (504 h); 50% in the assay on Oryza sativa (ORYSA) (240 h); 40% with Oryza sativa (ORYSA) (504 h).

With `CS(=O)(=O)c1cc(C(F)(F)F)ccc1C(=O)c1cnoc1C1CC1` [B3-3, (5-cyclopropyl-4-isoxazolyl)[2-(methylsulfonyl)-4-(trifluoromethyl)phenyl]methanone], the inhibition at 20 g/ha in assay [1] (20 g of ai/ha alone) is 0%; in the assay with Zea mays (ZEAMX) (Zea mays, post-emergence, 504 h, ZEAMX, 21 DAT, 20 g of ai/ha alone, read-out: % activity found), 0%; in [2] (Lolium multiflorum, post-emergence, 504 h, LOLMU, 21 DAT, 20 g of ai/ha alone, read-out: % activity found), 0%; in assay [6] (240 h, 10 DAT), 30%; in [6] (504 h, 21 DAT), 20%; in [4] (Fallopia convolvulus, post-emergence, 504 h, POLCO, 21 DAT, 20 g of ai/ha alone, read-out: % activity found), 0%. Besides, the inhibition at 20 g/ha in [5] (240 h, 10 DAT) is 20%; in [5] (504 h, 21 DAT), 0%; in the assay with Oryza sativa (ORYSA) (240 h, ORYSA, 10 DAT, 20 g of ai/ha alone), 50%. Moreover, the inhibition at 60 g/ha was 20% in the assay on Zea mays (ZEAMX) (Zea mays, post-emergence, 504 h, ZEAMX, 21 DAT, 60 g of ai/ha alone, read-out: % activity found); 30% in assay [2] (Lolium multiflorum, post-emergence, 240 h, LOLMU, 10 DAT, read-out: % activity found); 0% in [2] (Lolium multiflorum, post-emergence, 504 h, LOLMU, 21 DAT, read-out: % activity found); 50% in assay [6] (240 h, 10 DAT); 40% in assay [6] (504 h, 21 DAT); 0% in [4] (Fallopia convolvulus, post-emergence, 504 h, POLCO, 21 DAT, 60 g of ai/ha alone, read-out: % activity found). For the same compound, the inhibition at 60 g/ha stood at 30% in assay [5] (240 h, 10 DAT) and 10% in assay [5] (504 h, 21 DAT).

For `CCN(CC)C(=O)n1cnc(S(=O)(=O)c2c(C)cc(C)cc2C)n1` [B7-4, N,N-diethyl-3-[(2,4,6-trimethylphenyl)sulfonyl]-1H-1,2,4-triazole-1-carboxamide], the “(7) activity found” value in the assay on Zea mays (ZEAMX) (ZEAMX, 10 DAT, rate (6) B7-4 40) is listed as 10%; in the assay with Zea mays (ZEAMX) (ZEAMX, 21 DAT, rate (6) B7-4 40), 0%; with Zea mays (ZEAMX) (ZEAMX, 21 DAT, rate (6) B7-4 120), 0%; in assay [3] (rate (6) B7-4 40), 0%; in assay [3] (rate (6) B7-4 120) it was 0%; in [7] it was 20%. For the same compound, the “(7) activity found” value in assay [2] (LOLMU, 10 DAT, rate (6) B7-4 40) is on record as 0%; in assay [2] (LOLMU, 10 DAT, rate (6) B7-4 120), 40%; in the assay with Stellaria media (STEME) (rate (6) B7-4 40), 10%; with Stellaria media (STEME) (rate (6) B7-4 120), 10%; in the assay on Avena fatua (AVEFA) (AVEFA, 21 DAT, rate (6) B7-4 40 (Table 78)), 0%; with Avena fatua (AVEFA) (AVEFA, 21 DAT, rate (6) B7-4 40 (Table 79)), 0%. Further, the “(7) activity found” value in the assay on Avena fatua (AVEFA) (AVEFA, 21 DAT, rate (6) B7-4 120) amounted to 30%; with Viola tricolor (VIOTR) (10 DAT), 0%; in the assay with Viola tricolor (VIOTR) (21 DAT), 0%; in assay [6] (10 DAT, rate (6) B7-4 40) it was 0%; in [6] (21 DAT, rate (6) B7-4 40) it was 0%; in assay [6] (21 DAT, rate (6) B7-4 120), 0%. Besides, the “(7) activity found” value in [8] (rate (6) B7-4 40) is on record as 20%; in [8] (rate (6) B7-4 120), 20%; in assay [4] (POLCO, 21 DAT, rate (6) B7-4 40 (Table 82)), 30%; in assay [4] (POLCO, 21 DAT, rate (6) B7-4 40 (Table 83)) it was 30%; in [4] (POLCO, 21 DAT, rate (6) B7-4 120), 50%; in the assay with Veronica persica (VERPE) (rate (6) B7-4 40), 0%. The “(7) activity found” value in the assay on Veronica persica (VERPE) (rate (6) B7-4 120) is 0%.
